The text below walks through data of patent publication US11274097B2, “2-(het)aryl-substituted condensed bicyclic heterocycle derivatives as pest control agents” (BAYER CROPSCIENCE AKTIENGESELLSCHAFT, priority 2014, dated 2022).

Structures are written as SMILES. “And” between values parts separate entries of the source, which are not always exact repeats. Equal entries are not always repeated.

The test system of series [1] is Nephotettix cincticeps. The series can be described thus: Nephotettix cincticeps test (NEPHCI). Particulars: 0.16 ppm. The class given is in vivo. As to the method: Nephotettix cincticeps Test (NEPHCI)
(§1) Solvent: 7 parts by weight of dimethylformamide
(§2) Emulsifier: alkylaryl polyglycol ether
(§3) To produce an appropriate active ingredient formulation, 1 part by weight of active ingredient is dissolved using the stated parts by weight of solvent and made up with water containing an emulsifier concentration of 1000 ppm until the desired concentration is attained. To produce further test concentrations, the preparation is diluted with emulsifier-containing water. In the event that addition of ammonium salts or/and penetrants (rapeseed oil methyl ester) is required, these are each pipetted in a concentration of 1000 ppm after the finished formulation solution has been diluted.
Rice plants (Oryza sativa, var. Balilla) are treated by spraying with the active ingredient formulation in the desired concentration and then populated with larvae of the green rice leafhopper (Nephotettix cincticeps).
After the desired time, the kill in % is determined. 100% means that all leafhoppers have been killed; 0% means that none of the leafhoppers have been killed.

Series [2] has as its system Aphis gossypii. The series can be described thus: Aphis gossypii translaminar test (APHIGO t). The following applies: 2.4 g/ha, 7 dat. It is filed as in vivo. How it is done: Aphis gossypii—Translaminar Test (APHIGO t)
as §1, §2, §3
One-leaved cotton plants (Gossypium hirsutum) heavily infested by the cotton aphid (Aphis gossypii) are treated by spraying the top side of the leaf with the active ingredient formulation in the desired concentration.
(§4) After the desired time, the kill in % is determined. 100% means that all the aphids have been killed and 0% means that none of the aphids have been killed.

Series [3] concerns Myzus persicae. The series can be described thus: Myzus persicae contact test (MYZUPE c). Particulars: 2.4 g/ha, 14 dat. It is filed as in vivo. As to the method: Myzus persicae—Contact Test (MYZUPE c)
as §1
(§5) Emulsifier: alkylaryl poly glycol ether
as §3
One-leaved bell pepper plants (Capsicum annuum) heavily infested by the green peach aphid (Myzus persicae) are treated by spraying the underside of the leaf with the active ingredient formulation in the desired concentration.
as §4

Series [4] has as its system Myzus persicae. The series can be described thus: Myzus persicae translaminar test (MYZUPE t). It is filed as in vivo. The following applies: 14 dat. As to the method: Myzus persicae—Translaminar Test (MYZUPE t)
as §1, §5, §3
One-leaved bell pepper plants (Capsicum annuum) heavily infested by the green peach aphid (Myzus persicae) are treated by spraying the top side of the leaf with the active ingredient formulation in the desired concentration.
as §4

Series [5] has as its system Aphis gossypii. The series can be described thus: Aphis gossypii contact test (APHIGO c). It is filed as in vivo. The following applies: 2.4 g/ha, 7 dat. As to the method:
Aphis gossypii—Contact Test (APHIGO c)
as §1, §2, §3
One-leaved cotton plants (Gossypium hirsutum) heavily infested by the cotton aphid (Aphis gossypii) are treated by spraying the underside of the leaf with the active ingredient formulation in the desired concentration.
as §4

Series [6] concerns Nilaparvata lugens. The series is described as follows: Nilaparvata lugens test (NILALU). It is filed as in vivo. Particulars: 4 ppm. As to the method: Nilaparvata lugens Test (NILALU)
as §1, §2, §3
Rice plants (Oryza sativa, var. Balilla) are treated by spraying with the active ingredient formulation in the desired concentration and then populated with L3 larvae of the brown planthopper (Nilaparvata lugens).
After the desired time, the feeding damage in % is determined. 100% means that no feeding damage is found; 0% means that the feeding damage to the treated plant corresponds to that of the untreated control.

Series [7] deals with Myzus persicae. The series is described as follows: Myzus persicae spray test (MYZUPE), bell pepper plants. Particulars: application rate 100 ppm, after 6 days. The class given is in vivo. How it is done: (§6) Myzus persicae—Spray Test (MYZUPE)
as §1, §5
To produce an appropriate active ingredient formulation, 1 part by weight of active ingredient is dissolved using the stated parts by weight of solvent and made up with water containing an emulsifier concentration of 1000 ppm until the desired concentration is attained. To produce further test concentrations, the preparation is diluted with emulsifier-containing water. If the addition of ammonium salts or/and penetrants is required, these are each added in a concentration of 1000 ppm to the formulation solution.
Bell pepper plants (Capsicum annuum) heavily infested by the green peach aphid (Myzus persicae) are treated by spraying with the active ingredient formulation in the desired concentration.
After 6 days, the kill in % is determined. 100% means that all the aphids have been killed; 0% means that no aphids have been killed.

The nature of series [8]: log P by HPLC on a reversed-phase column (C 18), EEC Directive 79/831 Annex V.A8. The class given is physicochemical. Particulars: 55° C.; for LOGP_HCOOH: acidic range, pH 2.7, 0.1% aqueous formic acid/acetonitrile; for LOGP_NEUTRAL: neutral range, pH 7.8, 0.001 molar aqueous ammonium hydrogencarbonate/acetonitrile. The method, boiled down: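 Reversed-phase C18 HPLC at 55 °C, 10→95% acetonitrile linear gradient. log P (HCOOH) run at pH 2.7 with 0.1% formic acid; log P (neutral) at pH 7.8 with 0.001 M ammonium hydrogencarbonate. Calibrated by retention-time interpolation between unbranched C3–C16 alkan-2-ones of known log P.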

Series [9] concerns Phaedon cochleariae. The series can be described thus: Phaedon cochleariae spray test (PHAECO). The class given is in vivo. Particulars: larvae, after 7 days. As to the method: Phaedon cochleariae—Spray Test (PHAECO)
(§7) Solvent: 78.0 parts by weight of acetone • • 1.5 parts by weight of dimethylformamide
as §2
(§8) To produce an appropriate active ingredient formulation, 1 part by weight of active ingredient is dissolved using the stated parts by weight of solvent and made up with water containing an emulsifier concentration of 1000 ppm until the desired concentration is attained. To produce further test concentrations, the preparation is diluted with emulsifier-containing water.
Discs of Chinese cabbage leaves (Brassica pekinensis) are sprayed with an active ingredient formulation of the desired concentration and, after drying, populated with larvae of the mustard beetle (Phaedon cochleariae).
After 7 days, the efficacy in % is determined. 100% means that all the beetle larvae have been killed; 0% means that no beetle larvae have been killed.

The subject of series [10] is Myzus persicae. The series is described as follows: Myzus persicae spray test (MYZUPE), Chinese cabbage leaf discs. It is filed as in vivo. Particulars: application rate 500 g/ha, after 6 days. How it is done:
as §6
Solvent: 78 parts by weight of acetone • • 1.5 parts by weight of dimethylformamide
as §5, §8
Discs of Chinese cabbage leaves (Brassica pekinensis) infested by all stages of the green peach aphid (Myzus persicae) are sprayed with an active ingredient formulation of the desired concentration.
After 6 days, the efficacy in % is determined. 100% means that all the aphids have been killed; 0% means that none of the aphids have been killed.

Series [11] deals with Lucilia cuprina. The series can be described thus: Lucilia cuprina test (LUCICU). The class given is in vivo. The following applies: application rate 100 ppm; L1 larvae; after 2 days. How it is done:
Lucilia cuprina Test (LUCICU) Solvent: dimethyl sulphoxide To produce an appropriate active ingredient formulation, 10 mg of active ingredient are mixed with 0.5 ml of dimethyl sulphoxide, and the concentrate is diluted with water to the desired concentration. About 20 L1 larvae of the Australian sheep blowfly (Lucilia cuprina) are transferred into a test vessel containing minced horsemeat and the active ingredient preparation of the desired concentration. After 2 days, the kill in % is determined. 100% means that all the larvae have been killed; 0% means that none of the larvae have been killed.

The test system of series [12] is Ctenocephalides felis. The series can be described thus: Ctenocephalides felis in vitro contact test. The class given is in vivo. The following applies: application rate 5 μg/cm^2; adult cat fleas; after 48 h. How it is done: Ctenocephalides felis—In Vitro Contact Test
For the coating of the test tubes, 9 mg of active ingredient are first dissolved in 1 ml of acetone p.a. and then diluted to the desired concentration with acetone p.a. 250 μl of the solution are distributed homogeneously on the inner walls and base of a 25 ml test tube by turning and rocking on an orbital shaker (rocking rotation at 30 rpm for 2 h). With 900 ppm active ingredient solution and internal surface 44.7 cm^2, given homogeneous distribution, an area-based dose of 5 μg/cm^2 is achieved.
After the solvent has evaporated off, the tubes are populated with 5-10 adult cat fleas (Ctenocephalides felis), sealed with a perforated plastic lid and incubated in a horizontal position at room temperature and ambient humidity. After 48 h, efficacy is determined. To this end, the test tubes are stood upright and the fleas are knocked to the base of the tube. Fleas which remain motionless at the base or move in an uncoordinated manner are considered to be dead or moribund.
100% efficacy means that all the fleas were dead or moribund. 0% efficacy means that no fleas were harmed.

Series [13] relates to Spodoptera frugiperda. The series is described as follows: Spodoptera frugiperda spray test (SPODFR). It is filed as in vivo. The following applies: application rate 500 g/ha; maize leaf discs; after 7 days. As to the method:
Spodoptera frugiperda—Spray Test (SPODFR)
as §7, §2, §8
Leaf discs of maize (Zea mays) are sprayed with an active ingredient formulation of the desired concentration and, after drying, populated with caterpillars of the armyworm (Spodoptera frugiperda).
After 7 days, the efficacy in % is determined. 100% means that all the caterpillars have been killed; 0% means that no caterpillars have been killed.

Series [14] relates to Meloidogyne incognita. The series can be described thus: Meloidogyne incognita test. The class given is in vivo. Particulars: application rate 20 ppm; lettuce; after 14 days. How it is done: Meloidogyne incognita Test Solvent: 125.0 parts by weight of acetone To produce a suitable active ingredient formulation, 1 part by weight of active ingredient is mixed with the stated amount of solvent and the concentrate is diluted with water to the desired concentration. Vessels are filled with sand, active ingredient solution, an egg/larvae suspension of the southern root-knot nematode (Meloidogyne incognita) and lettuce seeds. The lettuce seeds germinate and the plants develop. The galls develop on the roots. After 14 days, the nematicidal efficacy in % is determined by the formation of galls. 100% means that no galls were found; 0% means that the number of galls on the treated plants corresponds to the untreated control.

In series [15] the test system is Tetranychus urticae. The series is described as follows: Tetranychus urticae spray test, OP-resistant (TETRUR). The class given is in vivo. The following applies: application rate 500 g/ha; bean leaf discs; after 6 days. As to the method:
Tetranychus urticae—Spray Test, OP-Resistant (TETRUR)
as §7, §2, §8
Discs of bean leaves (Phaseolus vulgaris) infested by all stages of the greenhouse red spider mite (Tetranychus urticae) are sprayed with an active ingredient formulation of the desired concentration.
After 6 days, the efficacy in % is determined. 100% means that all the spider mites have been killed; 0% means that none of the spider mites have been killed.

As for `CCS(=O)(=O)c1cc(C(F)(F)F)cnc1-c1nc2cc(C(F)(F)F)cnc2n1C` [Ex. 5 known from WO2013018928], the “% efficacy” value was found to be 0% in series [1] (14 dat); 0% in series [1] (21 dat); 0% in series [1] (34 dat); 0% in [2]; 50% in series [3]; 0% in series [4] (2.4 g/ha). Moreover, the “% efficacy” value is recorded as 0% in [4] (12 g/ha), 15% in series [5], 35% in [6] (21 dat) and 20% in [6] (28 dat).
As to `Cn1c(-c2ccc(Cl)cc2S(C)(=O)=O)nc2cc(C(F)(F)F)ncc21` [Example I-11], the “efficacy (kill)” value in series [7] is 97%. In series [8], this molecule had an LOGP_HCOOH of 2.39 and an LOGP_NEUTRAL of 2.34. In series [9] (application rate 100 g/ha), this molecule returned an efficacy of 100%.
For the molecule `CCS(=O)(=O)c1ccccc1-c1nc2cc(C(F)(F)F)ncc2n1C` [Example I-18], the efficacy is 100% and 90% in series [10]; 100% in series [12]; 100% in series [9] (application rate 500 g/ha). In series [8], this molecule gave an LOGP_HCOOH of 2.13. This molecule also registered an LOGP_NEUTRAL in [8] of 2.11. The “efficacy (kill)” value in series [11] is recorded as 100%.
As to `CCS(=O)(=O)c1cccnc1-c1nc2cc(C(F)(F)C(F)(F)F)ncc2n1C` [Example I-68], the efficacy came out at 100% in series [13], 90% in series [10], 100% in series [15] and 100% in series [9] (application rate 500 g/ha). In addition, the “nematicidal efficacy (formation of galls)” value in [14] is 100%. The same molecule came in with an LOGP_HCOOH in series [8] of 2.50. The LOGP_NEUTRAL in [8] is 2.46.
